# In BigSolDB 2.1:
compound,measurement,setting,value
CC(C)(C)C(=O)C(Oc1ccc(Cl)cc1)n1cncn1 (stereo not given),solubility (mole fraction),"in acetonitrile, 288.15 K",0.011
same,solubility (mole fraction),"in acetonitrile, 293.15 K",0.0132
same,solubility (mole fraction),"in acetonitrile, 298.15 K",0.0162
same,solubility (mole fraction),"in acetonitrile, 303.15 K",0.0196
same,solubility (mole fraction),"in acetonitrile, 308.15 K",0.0238
same,solubility (mole fraction),"in acetonitrile, 313.15 K",0.0285
same,solubility (mole fraction),"in acetonitrile, 318.15 K",0.034
same,solubility (mole fraction),"in acetonitrile, 323.15 K",0.0407
same,solubility (mole fraction),"in acetonitrile, 328.15 K",0.0479
same,solubility (mole fraction),"in acetonitrile, 333.15 K",0.057
same,solubility (mole fraction),"in cyclohexane, 288.15 K",0.000445
same,solubility (mole fraction),"in cyclohexane, 293.15 K",0.00143
same,solubility (mole fraction),"in cyclohexane, 298.15 K",0.00382
same,solubility (mole fraction),"in cyclohexane, 303.15 K",0.00873
same,solubility (mole fraction),"in cyclohexane, 308.15 K",0.0178
same,solubility (mole fraction),"in cyclohexane, 313.15 K",0.0315
same,solubility (mole fraction),"in cyclohexane, 318.15 K",0.0489
same,solubility (mole fraction),"in cyclohexane, 323.15 K",0.0692
same,solubility (mole fraction),"in cyclohexane, 328.15 K",0.0869
same,solubility (mole fraction),"in cyclohexane, 333.15 K",0.0986
same,solubility (mole fraction),"in n-heptane, 288.15 K",0.00129
same,solubility (mole fraction),"in n-heptane, 293.15 K",0.00204
same,solubility (mole fraction),"in n-heptane, 298.15 K",0.00321
same,solubility (mole fraction),"in n-heptane, 303.15 K",0.00483
same,solubility (mole fraction),"in n-heptane, 308.15 K",0.00737
same,solubility (mole fraction),"in n-heptane, 313.15 K",0.0111
same,solubility (mole fraction),"in n-heptane, 318.15 K",0.0164
same,solubility (mole fraction),"in n-heptane, 323.15 K",0.0238
same,solubility (mole fraction),"in n-heptane, 328.15 K",0.034
same,solubility (mole fraction),"in n-heptane, 333.15 K",0.0491
same,solubility (mole fraction),"in n-hexane, 288.15 K",0.000262
same,solubility (mole fraction),"in n-hexane, 293.15 K",0.000539
same,solubility (mole fraction),"in n-hexane, 298.15 K",0.00104
same,solubility (mole fraction),"in n-hexane, 303.15 K",0.00197
same,solubility (mole fraction),"in n-hexane, 308.15 K",0.0035
same,solubility (mole fraction),"in n-hexane, 313.15 K",0.00592
same,solubility (mole fraction),"in n-hexane, 318.15 K",0.00984
same,solubility (mole fraction),"in n-hexane, 323.15 K",0.0156
same,solubility (mole fraction),"in n-hexane, 328.15 K",0.0233
same,solubility (mole fraction),"in n-hexane, 333.15 K",0.0354
same,solubility (mole fraction),"in p-xylene, 288.15 K",0.0631
same,solubility (mole fraction),"in p-xylene, 293.15 K",0.0846
same,solubility (mole fraction),"in p-xylene, 298.15 K",0.112
same,solubility (mole fraction),"in p-xylene, 303.15 K",0.147
same,solubility (mole fraction),"in p-xylene, 308.15 K",0.188
same,solubility (mole fraction),"in p-xylene, 313.15 K",0.239
same,solubility (mole fraction),"in p-xylene, 318.15 K",0.299
same,solubility (mole fraction),"in p-xylene, 323.15 K",0.372
same,solubility (mole fraction),"in p-xylene, 328.15 K",0.456
same,solubility (mole fraction),"in p-xylene, 333.15 K",0.553
same,solubility (mole fraction),"in toluene, 288.15 K",0.0916
same,solubility (mole fraction),"in toluene, 293.15 K",0.119
same,solubility (mole fraction),"in toluene, 298.15 K",0.154
same,solubility (mole fraction),"in toluene, 303.15 K",0.192
same,solubility (mole fraction),"in toluene, 308.15 K",0.235
same,solubility (mole fraction),"in toluene, 313.15 K",0.282
same,solubility (mole fraction),"in toluene, 318.15 K",0.333
same,solubility (mole fraction),"in toluene, 323.15 K",0.381
same,solubility (mole fraction),"in toluene, 328.15 K",0.431
same,solubility (mole fraction),"in toluene, 333.15 K",0.475
